What all share (assay type): cell-based, human
Assay [1] relates to HEK293 CMV-fLuc subclone #3. Description: Updated 15-Assay / 21-Assay, cap-dependent translational responses. The note with it: Updated 15-Assay two-Toxin with 100 nM TPA, cap-dependent. From the text:
(§1) The dashed line represents the level of translational response in the untreated samples.
Following 6 hr exposure to the compounds, cells were lysed and fLuc protein activity measured using a standard microplate reader assay. The triplicate plate reader values were averaged and expressed as the ratio of treated to untreated samples (Fold Induction). The dashed line represents the level of translational response in the untreated samples.
The 21-Assay procedure employs the same standard toxins as the Updated 15-Assay protocol. The extra 6 assays involve an unknown or an uncharacterized compound and its pairwise combinations with the five toxins: Unknown, Unknown+TPA, Unknown+Colchcine, Unknown+Bortezomib (Velcade), Unknown+Low dose Calon, and Unknown+Hycamtin (Topotecan).
Application of single-Toxin and two-Toxin assays in the Updated 15-Assay protocol was used to define cap-dependent translational responses in the HEK293 CMV-fLuc #3 subclone (FIG. 30A).
The combinatorial process described in this example provides a system for testing translational regulation by unknown compounds. In this example, a 21-Assay setup is described that employs the single and pairwise combinatorial application of 5 toxins, as in a standard 15-Toxin assay, and the addition of a sixth substance. Inclusion of the sixth substance requires the expansion of the assay group to a total of 21 single- and two-Toxin assays. For this example, a control substance (taxol) was selected from the original 15-Assay system.

Assay [2] deals with MCF7 mTRdm-fLuc subclones #8, #27, and #45. Description: PKC activator dose response, cap-independent TR translation (fLuc). The note with it: single-Toxin, 6 hr. How it is done: Following 6 hr culture with a TPA single-Toxin assay, cells were lysed and fLuc protein activity measured using a standard microplate reader assay. The plate reader values were averaged and expressed as the ratio of treated to untreated samples (Fold Induction).
As with FIG. 27B, dashed lines represent translational response levels achieved by the 100 nM TPA assay in each cell line. […] A further difference between the cap-dependent and cap-independent assays was the observation that increased Bryostatin 2 concentrations (5× the maximal TPA dose) never produced fLUC activity equivalent to the 100 nM TPA assay. Thus, the Toxin Assay procedure can detect a statistically significant difference in cap-dependent and cap-independent translation in compounds that activate PKC activity.
In the cap-independent assays, a similar dose response trend was observed over a 1 nM to 250 nM range with a translational peak at a 100 nM dose. However, the magnitude of the Bryostatin increases were generally 30% of 100 nM TPA response.

The subject of a further assay is HCT116 mTRdm-fLUC cells. Description: 5-Assay / 15-Assay toxin assays, fLUC plate reader (Fold Induction).
Assay [3] has as its system MCF7 CMV-fLuc subclones #44 and #48. Description: PKC activator dose response, cap-dependent translation (fLuc). The note with it: single-Toxin, 6 hr. As for the experimental part: Following 6 hr exposure to the Single-Toxin TPA assay, cells were lysed and fLuc protein activity measured using a standard microplate reader assay. The raw values were averaged and expressed as the ratio of treated to untreated samples (Fold Induction).
Dashed lines represent translational response levels produced by a 100 nM TPA Single-Toxin assay. The Bryostatin 1 concentrations (top panel) encompassed the TPA concentrations used in FIG. 27A. […] The Bryostatin 2 dose response curve (bottom panel) employed higher drug concentrations (the maximal tested dose was 5× the largest TPA and Bryostatin 1 amounts). At the highest tested dose (2.5 uM), Bryostatin 2 produced fLuc activity consistent with the level observed with 100 nM TPA.
In addition to measuring cap-dependent and cap-independent translational effects, Class-specific translational activity and toxin-defined actions, the previously described materials and methods allow for a variety of applications designed to detect and characterize agents and processes that regulate ribosome activity. In this example, comparative dose response assays were used to detect cap-dependent and cap-independent translational regulation in MCF7 cells. The basis for this application was the observation that distinct translational responses are produced by compounds at different doses. When an assortment of compounds act on a common molecular target, they can be grouped into a genus of related drugs. By comparing individual species of a compound genus over a defined dose range, differences in translational regulation can be defined. Furthermore, these translational differences can often be linked to biological differences.
In this example (FIG. 27), the three PKC activators produced similar dose response trends in cap-dependent assays. […] However, macrolide lactones produced translational increases that were generally 60-70% of the TPA translational response (FIG. 27B). In fact, a 25 fold increase in Bryostatin 2 concentration (2.5 uM) was needed to produce a translational magnitude similar to the 100 nM TPA assay (FIG. 27B).

Assay [4] relates to MCF7 mTRdm-fLuc subclone #27. The assay can be described thus: Topoisomerase 1 inhibitor single-Toxin and two-Toxin (100 nM TPA) dose response, cap-independent. As for the experimental part:
FIG. 28C illustrates the use of single-Toxin Assays to measure the effects of Topoisomerase 1 inhibitors on cap-independent translation in MCF7 cells. Triplicate samples of the MCF7 mTRdm-fLuc subclone #27 were treated with varying concentrations (10 nM to 10 uM range) of the Topoisomerase 1 inhibitors; camptothecin, rubitecan, irinotecan and topotecan. The plate reader values were averaged and expressed as the ratio of treated to untreated samples (Fold Induction). The dashed line represents the level of translational response in untreated controls.
FIG. 28D illustrates the use of a two-Toxin Combinatorial Assay on the MCF7 mTRdm-fLuc subclone #27 treated with 100 nM TPA plus varying doses (10 nM to 10 uM range) of the Topoisomerase 1 inhibitors. The plate reader values were averaged and expressed as the ratio of treated to untreated samples (Fold Induction). The dashed line represents the level of translational response in untreated samples. All four inhibitors acted synergistically with TPA to increase protein activity in the 10 nM two-Toxin assay.
FIG. 28D illustrates the use of a two-Toxin dose response assay using varying dosages of the TopoI inhibitors in combination with the 100 nM TPA translational activator. All four inhibitors acted synergistically with TPA at low doses to increase protein translation. At concentrations higher than 100 nM, camptothecin, rubitecan, and topotecan antagonized the TPA response and reduced the fLUC expression.

Assay [5] has as its system HEK293 mTRdm-fLuc subclone #13 and HEK293 hTRdm-gLuc subclone #79. The assay can be described thus: Updated 15-Assay / 21-Assay, TR translational responses (fLuc, gLuc). The note with it: Updated 15-Assay, High Dose 10 uM, single- and two-Toxin. As for the experimental part: as §1
As before, secreted Gaussia Luciferase (gLUC) activity was measured in conditioned media 6 hr after drug application and protein activity expressed as the ratio of treated to untreated samples (Fold Induction). The dashed line represents the translational response in untreated cells.
The dashed line represents the translational response produced by untreated cell samples.
Following a 6 hr culture time, secreted gLuc activity was measured in conditioned media using a standard microplate reader assay and expressed as the ratio of treated to untreated samples (Fold Induction). The dashed line represents the level of translational response in the untreated samples. Given that the gLuc protein is secreted into the media, it escapes the cytoplasmic protein turnover processes acting on the fLUC protein. Therefore, any difference in the apparent TR response is a likely result of variation in reporter protein synthesis, secretion or reduced protein turnover.
The 21-Assay procedure employs the same standard toxins as the Updated 15-Assay protocol. The extra 6 assays involve an unknown or an uncharacterized compound and its pairwise combinations with the five toxins: Unknown, Unknown+TPA, Unknown+Colchcine, Unknown+Bortezomib (Velcade), Unknown+Low dose Calon, and Unknown+Hycamtin (Topotecan). […]

For assay [6], the system named is MCF7 CMV-fLuc subclone #65. The assay can be described thus: Topoisomerase 1 inhibitor single-Toxin and two-Toxin (100 nM TPA) dose response, cap-dependent. The note with it: 10 nM to 10 uM. How it is done: FIG. 28A illustrates a dose response assay of the MCF7 CMV-fLuc subclone #65 treated with varying doses (10 nM to 10 uM range) of the following Topoisomerase 1 inhibitors: camptothecin, topotecan, irinotecan, and rubitecan. Following a 6 hr incubation in a single-Toxin assay, cells were lysed and fLuc protein activity measured using a standard microplate reader assay. The plate reader values were averaged and expressed as the ratio of treated to untreated samples (Fold Induction). The dashed line represents the level of translational response in untreated cell samples.
FIG. 28B illustrates the use of a Combinatorial Assay to examine the effects of Topoisomerase 1 inhibitors on cap-dependent translation. A series of dose response assays were performed on the MCF7 CMV-fLuc subclone #65 using varying doses of the Topoisomerase 1 inhibitors (10 nM to 10 uM range) in a Two-Toxin assay with a constant 100 nM TPA dose. The plate reader values were averaged and expressed as the ratio of treated to untreated samples (Fold Induction). The dashed line represents the level of translational response in untreated samples.
FIG. 28A illustrates a cap-dependent dose response assay of MCF7 cells treated with varying dosages (10 nM to 10 uM range) of the following TopoI inhibitors: camptothecin, topotecan, irinotecan, and rubitecan. […] While the altered irinotecan response might have been predicted based on its metabolic requirements, the lack of topotecan action on cap-dependent translation in the single-Toxin assays was unexpected.
Since similar doses inhibited translation in the single-Toxin assays (FIG. 28A), this effect might have represented a direct effect on translation.

Experimental for HCT116 mTRdm-fLUC cells: The 5-Assay and 15-Assay procedures were applied to cellular pools using either of two growth procedures (e.g. a Cell Count or Confluence growth assay). For a Cell Count assay, cells from the P1 pool dish were counted and passed into a white clear bottom 96-well microtiter tray at a density of 25,000 cells per well; the leftover cells were passed into a passage 2 (P2) dish. Cells in the microtiter plate were allowed to grow for about 40 hr to achieve a ˜75% cell confluence prior to incubation with a toxic agent. Then cells in a microtiter plate were treated with complete growth medium containing either no toxin or an optimal toxin, defined as a single or multiple toxin assay that produces a maximal translational response (taken from Table 3) and incubated for 6 hours at 37° C. Each treatment was performed on triplicate wells.
After toxin incubation, cells were examined by phase contrast microscopy for signs of detachment. If more than ˜10% of cells were detached, the 96-well plates were centrifuged at 1200 rpm for 3 min to pellet the detached cells. The media were removed and replaced with 50 μL of Cell Lysis Buffer (25 mM Tris-phosphate (pH7.8), 10% glycerol, 1% Triton X-100, 1 mg/ml BSA, 2 mM EGTA and 2 mM DTT). Cells were incubated with the Cell Lysis Buffer for 10 min at RT and cell lysis was verified using a phase contrast microscope. To ensure complete lysis, the lysates were vigorously agitated using the multichannel pipettor. Any air bubbles formed as a result of agitation were manually removed with a syringe needle. Luminescence was measured using the FLUOstar Optima (BMG Labtech) microplate reader. To develop luminescence, wells were injected with 5 μL of the D-luciferin solution dissolved in Reaction Buffer (25 mM Glycylglycine (pH 7.8), 15 mM MgSO4, 4 mM EDTA, 15 mM Potassium phosphate, 1 mM DTT, 1 mM Coenzyme A, 6.7 mM ATP and 3.35 mM D-luciferin). After 4 sec with shaking, luminescence values were measured using the lens filter at gains of 2500-4000.
Light values were converted to Fold Induction using the ratio of values produced by treated and untreated cells. The maximal TR-specific translational response produced by the 5-Toxin or 15-Toxin assay was used to assign an optimal toxin assay (maximal translational response) which was subsequently used to screen subclones derived from this pool and to assign a Class designation. […]
In one test, the 5-Assay procedure (Table 3) was applied to HCT116 mTRdm-fLUC 12-16 subclone #30 cells (FIG. 1A). […] Samples were then processed with Lysis buffer and read in a plate reader. […]
Triplicate samples of HCT116 mTRdm-fLUC 12-16 Sub#30 cells were cultured with the two-Toxin assays using a standard plate reader protocol (FIG. 1C). […]

As to `CNc1ccc2oc(C[C@H]3O[C@@]4(CC[C@H]3C)O[C@H]([C@H](C)C(=O)c3ccc[nH]3)[C@H](C)C[C@H]4C)nc2c1C(=O)O` [calcimycin, Calcimycin], in assay [1], the “effect on the TPA response” value was “TPA response was antagonized”.
Take `CCCCCCCCCCCCCC(=O)O[C@@H]1[C@@H](C)[C@@]2(O)[C@@H](C=C(CO)C[C@]3(O)C(=O)C(C)=C[C@@H]23)[C@@H]2C(C)(C)[C@]12OC(C)=O` [TPA, 12-O-tetradecanoylphorbol-13-acetate]: the “dose giving peak fLuc protein activity” value in assay [2] came to 100 nM. For the same molecule, in the assay with HCT116 mTRdm-fLUC cells (5-Assay, 6 hr, HCT116 mTRdm-fLUC 12-16 subclone #38), the “TR-specific toxin response” value is listed as “Maximal TR-specific toxin responses”. Moreover, the “increase in reporter activity (maximal TR-specific response)” value with HCT116 mTRdm-fLUC cells (5-Assay, TPA single-Toxin 100 nM, 6 hr, HCT116 mTRdm-fLUC 12-16 subclone #30) was 800-1200%. For the same molecule, the “dose giving maximal reporter level (translational peak)” value in assay [3] stood at 100 nM.
As to `CC[C@@]1(O)C(=O)OCc2c1cc1n(c2=O)Cc2cc3c(CN(C)C)c(O)ccc3nc2-1.Cl` [topotecan, (S)-10-[(dimethylamino)methyl]-4-ethyl-4,9-dihydroxy-1H-pyrano[3′,4′:6,7]indolizino[1,2-b]quinoline-3,14(4H,12H)-dione monohydrochloride], the “effect on cap-independent translation” value in assay [4] (single-Toxin, 10 nM to 10 uM) was “exhibited reduced fLUC activity at higher doses (5 uM and 10 uM)”. For the same molecule, the “effect on TPA activity” value in assay [4] (two-Toxin with 100 nM TPA, 10 nM to 10 uM) is “antagonized the TPA activity and exhibited reduced fLUC expression”. For the same molecule, in assay [4] (two-Toxin with 100 nM TPA, highest dose), the “fLUC expression at the highest dose” value is “basal level expression”. Moreover, in assay [5], the “effect on translation” value is “inhibitory effect of Topotecan (HD) was evident in all Single- and two-Toxin assays”. For the same molecule, the “effect on the TPA response” value in assay [1] is “TPA response was antagonized”. In addition, the “effect on cap-dependent translation” value in assay [6] (single-Toxin) is on record as “neither topotecan or irinotecan significantly altered cap-dependent translation”. For the same molecule, in assay [6] (two-Toxin with constant 100 nM TPA, cap-dependent), the “effect on TPA-specific translational response” value is “showed only the TPA inhibitory effect at high doses (i.e. 5 uM and 10 uM)”.
Turning to `CC(C)C[C@H](NC(=O)[C@H](Cc1ccccc1)NC(=O)c1cnccn1)B(O)O` [Velcade, [(1R)-3-methyl-1-[[(2S)-1-oxo-3-phenyl-2-[(pyrazinylcarbonyl)amino]propyl]amino]butyl] boronic acid], in assay [1], the “effect on the TPA response” value is on record as “TPA response was antagonized”.
With `CCCC(=O)Nc1ncnc2c1ncn2[C@@H]1O[C@@H]2COP(=O)(O)O[C@H]2[C@H]1OC(=O)CCC` [dbcAMP, Dibutyryl-cyclic AMP], the “translational response” value in the assay on HCT116 mTRdm-fLUC cells (dbcAMP single-Toxin assay, HCT116 mTRdm-fLUC transformed subclones) is “minimal translational response”.

The values are drawn from patent US9388405B2, “Method for identifying a subpopulation of mammalian cells with distinctive ribosome translation profiles” (priority 2009, dated 2016).
